Columns and labels:
Type in all cases: cell-based
[1] = system: β-tubulin; test: β-tubulin polymerisation inhibition assay (Human Beta-tubulin ELISA kit) on MDA-MB-231 cells; conditions: MDA-MB-231 cell line, each compound at its IC50 concentration
Description: Trimethoxy phenyl fragment-containing natural stilbenoid-derived molecules, such as Colchicine and CA-4 bind to β-tubulin subunit at the colchicine binding site resulting in inhibition of microtubule assembly and suppression of its formation. […] From the obtained results it can be concluded that the antiproliferative activity of the synthesised triazinone-linked CA-4 derivatives may be derived from the inhibition of microtubule assembly.
Triazinone derivatives 6 and 12 were assessed for their tubulin inhibitory activity according to manufacturer’s instructions using # abcam Human Beta-tubulin simple step ELISA Kit ab245722.
(§1) Part I: Biological Studies
(§2) 4.3. Biological evaluation
(§3) 4.3.1. Cytotoxic activity evaluation
(§4) The cytotoxic actvity of the synthesized derivatives 2a-13e was measured in MDA-MB-231 breast cancer cell line and derivatives 6 and 12 in MCF-10A […].
(§5) Cell viability assay was assessed using MTT assay method. Cells at density of 1 x 104 were seeded in a 96-well plate at 37 °C for 24 h under 5% CO2. After incubation, the cells were treated with different concentrations of the test schiff bases 2a-13e and incubated for 24 h, then 20 µl of MTT solution at 5 mg/mL was applied and incubated for 4 h at 37 °C.
(§6) Dimethyl sulphoxide (DMSO) in volume of 100 µl was added to each well to dissolve the purple formazan that had formed. The color intensity of the formazan product, which represents the growth condition of the cells, is quantified by using an ELISA plate reader (EXL 800, USA) at 570 nm absorbance. The experimental conditions were carried out with at least three replicates, and the experiments were repeated at least three times.
4.3.2. Tubulin inhibitions Assay
(§7) Compounds 6, 12 and CA-4 were evaluated for their tubulin inhibitory activity according to manufacturer’s instructions using # abcam Human Beta-tubulin simplestep ELISA Kit ab245722. MDA-MB-231 cells were trypsinized, counted and seeded at the 2 × 105 into 96-well micro titer plates. […]
(§8) (O.D.) was measured at 450±10 nm using microplate reader (Spectromax Plus 96 well plate […]

[2] = system: MDA-MB-231 cells; test: Annexin V-FITC/PI apoptosis staining assay; conditions: MDA-MB-231, at IC50, 24 h; for percentage of late apoptotic cells (upper right quadrant): untreated control 0.13%
Description: The effect of compounds 6 and 12 on apoptosis percentage rate was carried out using annexin V-FITC/Propidium iodide (PI) biparametric cytofluorimetric double staining analysis in MDA-MB-231 cells.
Apoptosis in MDA-MB-231 cells was investigated using a fluorescent Annexin V-FITC/PI detection kit (BioVision Annexin V-FITC Apoptosis Detection Kit, Catalog #: K101) by flow cytometry assay. All experimental steps were conducted as reported earlier. […]
4.3.4.1. Apoptosis assay for compounds 6 and 12
Apoptosis in MDA-MB-231 cells was investigated using fluorescent Annexin V-FITC/ PI detection kit (BioVision Annexin V-FITC Apoptosis Detection Kit, Catalog #: K101) by flow cytometry assay. MDA-MB-231 cells at a density of 2 × 10^5 per well were treated […]
stained with Annexin V-FITC/ PI dye for 15 min in the dark at 37 °C. […]
All experiments were done in triplicates. […]

[3] = system: p53; test: ELISA measurement of p53 level in MDA-MB-231 cells; conditions: MDA-MB-231, at IC50, 24 h
Text: (§9) p53, Bax, and Bcl-2 are key regulators of the apoptosis process to keep the balance between viable and dead normal cells. Deregulation of these proteins is a common feature responsible for uncontrolled cancer cell growth. In this test, the protein expression of apoptotic regulators was examined using ELISA analysis. […]
(§10) p53, Bax, and Bcl2 enzyme activities in MDA-MB-231 cells were investigated in the presence of compounds 6 and 12 at their IC50 concentration (µM). The levels of the tumour suppressor gene p53, apoptotic markers Bax as well as the anti-apoptotic marker Bcl-2 were assessed using the p53 ELISA kit, Human Bax ELISA kit, and Bcl-2 Elisa kit. The procedure of the used kits was done according to the manufacturer's instructions and was conducted as reported earlier. […]
(§11) 4.3.4.2. Effect on p53, Bax and Bcl-2 p53, Bax and Bcl2 enzyme activities in MDA-MB-231 cells were detected in the presence of compounds 6 and 12 at their IC50 concentration (µM). The levels of the tumor suppressor gene p53, apoptotic markers Bax as well as the anti-apoptotic marker Bcl-2 were assessed using p53 ELISA kit, Human Bax ELISA kit and Bcl-2 Elisa kit. The procedure of the used kits was done according to the manufacturer's instructions. […] The samples were measured at 450 nm in ROBONEK P2000 ELISA reader. […]

[4] = system: Bcl-2; test: ELISA measurement of Bcl-2 level in MDA-MB-231 cells; conditions: MDA-MB-231, at IC50, 24 h
Text: as §9, §10, §11

[5] = system: MCF-10A; test: MTT cytotoxic activity against breast MCF-10A cell line; conditions: MTT assay, 24 h treatment
Text: All the synthesised compounds were screened for their cytotoxic activity against breast MDA-MB-231 cancer cell line and compounds 6 and 12 against breast MCF-10A cell line taking CA-4 as a positive control for the analysis. The in vitro cytotoxicity results of the prepared compounds were systematised in Table 1. […] Structurally, the prepared molecules contain three structural variations; including rotatable hydrazide derivatives, the core exchange with imidazolone ring, and the ring expansion with triazinone motif. […] It is noticed that directly attached benzene ring to triazinone scaffold (compound 6) or bioisosteric group (thiazolyl ester) as in compound 12, may contribute to the astonishing cytotoxicity against breast MDA-MB-231 cancer cells.
as §1, §2, §3, §4, §5
as §6, with “The experimental conditions were carried out with at least three replicates, and the experiments were repeated at least three times.” left out
as §7, §8

Row | Molecule | % Inhibition of β-tubulin polymerisation [1] | increase of percentage of early apoptotic cells relative to no treatment control [2] | increase of percentage of total apoptotic cells compared with no treatment control [2] | percentage of late apoptotic cells (upper right quadrant) [2] | p53 level increase, fold change compared with no treatment control [3] | Bcl-2 level decrease compared with no treatment control [4] | IC50 [5] | IC50 ([5]; Homo sapiens, MCF-10A)
1 | ethyl 2-(2-(6-oxo-5-(3,4,5-trimethoxybenzylidene)-3–(3,4,5-trimethoxyphenyl)-5,6-dihydro-1,2,4-triazin-2(1H)-yl)thiazol-4-yl)acetate [Compound 12] | 68.28 ± 0.16% | 4.36 fold | 14.98 fold | 17.68% | 5.20 fold | 2.96 fold | 14.6 ± 1.96 µM | –
2 | COc1cc(C=C2N=C(c3cc(OC)c(OC)c(OC)c3)N(c3ccccc3)NC2=O)cc(OC)c1OC [Compound 6, 2-phenyl-5-(3,4,5-trimethoxybenzylidene)-3-(3,4,5-trimethoxyphenyl)-1,2-dihydro-1,2,4-triazin-6(5H)-one] | 77.61 ± 0.10% | 6.80 fold | 21.86 fold | 23.28% | 11.96 fold | 6.49 fold | – | 19.5 ± 2.15 µM
